Patent US20090286799A1, “METHODS FOR THE TREATMENT OF BRAIN EDEMA” (priority 2008, published 2009)

Assays:
[1] = tested on: Middle Cerebral Artery Occlusion (MCAo) rats; experiment: Middle cerebral artery occlusion (MCAo) rat model: infarct volume, edema volume, premature mortality; type: in vivo, male Sprague-Dawley rats
Protocol: For Middle Cerebral Artery Occlusion (MCAo), male Sprague-Dawley rats (270 to 330 g) were anesthetized with gaseous isoflurane. With aseptic surgical techniques, a laser-Doppler probe was placed on the right temporal-lateral portion of the skull over a region of the cortex which is supplied by the middle cerebral artery to record cerebral blood flow (CBF). CBF was recorded before and after arterial occlusion. The bifurcation of the right external common carotid 8 artery (ECA) and internal common carotid artery (ICA) was surgically exposed. A 4-0 monofilament suture treated with a silicone coating to enlarge the tip to better achieve an arterial block was placed into the ECA stump, and advanced up the ICA approximately 20 mm until a drop in CBF of approximately 75% or greater was measured by laser Doppler flowmetry (PeriFlux PF5010, Perimed). The duration of the ischemia was 120 minutes.
PAN-811 was originally dissolved to a concentration of 25.6 mmol/L in 7% (v/v) polyethylene glycol (PEG) 300, 3% ethanol (EtOH), 28.6 mmol/L citric acid and 5.7 mmol/L L-ascorbic acid solution. 25.6 mmol/L was the highest concentration of PAN-811 used for dosing. This solution was further diluted with normal saline to produce dosing solutions of 2.56 mmol/L, 5.12 mmol/L, and 10.2 mmol/L on the day of surgery. Vehicle dosing solutions were identical in components to the 5.12 mmol/L PAN-811 group (Vehicle Low), or the 10.2 mmol/L group (Vehicle High). These treatments were delivered intravenously route into MCAo rats at reperfusion time. […]
After 22 hours of treatment, the animals were sacrificed by CO2 asphyxiation, and their brains sectioned at 2 mm intervals. […] Brain areas were traced and measured using a computerized image analysis system (SimplePCI Version 4.0.0, Compix Inc) to determine infarct volume (in cubic millimeters, mm^3), whereby unstained areas were defined as ischemic lesions of infarcted tissue.
Ischemic stroke often results in brain edema (Ayata et al., 2002). Therefore, the volumes for both ipsilateral and contralateral side hemispheres of MCAo rats were measured 22 hours later, and the edema volumes (hemisphere volume of the ipsilateral side hemisphere volume of contralateral one) were calculated, and expressed as mean±SEM (FIG. 1B). […]
Brain edema can result in death of MCAo rats. Therefore, the mortalities for vehicle groups and PAN-811 treated groups, as explained in Examples 1 and 2, were counted (FIG. 1C). Mortalities of general vehicle treated groups (open bar) and collective PAN-811 treated groups (black bar) were determined and premature death rates were expressed as percentage of total animal number in each condition. […]

[2] = target: T1, Recombinant human pro-MMP-9 (Homo sapiens, UniProt P14780); experiment: MMP Assay Kit (5-FAM/QXL520 FRET peptide) for MMP-9 bioactivity; type: biochemical; settings: final concentration of PAN-811 1 mM, calcium 0.4 mM, 30 min room temperature
T1 construct: purchased AnaSpec 72009
T1 sequence (P14780 107-707 limits assumed): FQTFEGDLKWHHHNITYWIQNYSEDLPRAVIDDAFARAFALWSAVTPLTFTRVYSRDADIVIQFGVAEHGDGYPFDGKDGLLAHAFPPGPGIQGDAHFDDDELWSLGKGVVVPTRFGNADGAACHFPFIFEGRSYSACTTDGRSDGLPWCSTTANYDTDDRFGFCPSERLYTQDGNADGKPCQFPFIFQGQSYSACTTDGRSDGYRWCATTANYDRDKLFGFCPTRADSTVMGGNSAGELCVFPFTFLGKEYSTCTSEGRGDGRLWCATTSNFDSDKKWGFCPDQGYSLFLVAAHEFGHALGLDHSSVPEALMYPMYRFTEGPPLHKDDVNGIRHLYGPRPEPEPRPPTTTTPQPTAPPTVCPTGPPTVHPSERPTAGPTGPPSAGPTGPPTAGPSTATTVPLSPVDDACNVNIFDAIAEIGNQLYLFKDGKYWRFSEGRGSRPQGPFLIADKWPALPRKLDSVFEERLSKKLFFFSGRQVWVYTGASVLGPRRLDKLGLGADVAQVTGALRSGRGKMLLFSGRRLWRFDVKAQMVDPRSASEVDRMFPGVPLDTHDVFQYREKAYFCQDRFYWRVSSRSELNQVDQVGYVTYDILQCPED
Text: The principle behind this analysis is as follows. A 5-FAM/QXL™520 fluorescence resonance energy transfer (FRET) peptide is used as a substrate for MMP. The fluorescence of 5-FAM is quenched by QXL™520 in intact FRET peptide. However, upon cleavage of FRET into two separate fragments by MMP, in the presence of Ca^2+, the fluorescence of 5-FAM is recovered, and can be monitored at excitation/emission wavelengths of […]/520 nm with a fluorometer. Thus, an inhibitor of MMP-9 could suppress the cleavage of FRET by MMP-9 and decrease the fluorescence intensity of 5-FAM. To test the effect of PAN-811 on the bioactivity of MMP-9, black 96-well plates (Cat #3603, Costar®), Corning Inc.) were pre-warmed at 37° C. 4-aminophenylmercuric acetate (APMA) was diluted 20-fold with assay buffer (both in MMP assay kit) to a final concentration of […]. Recombinant human pro-MMP-9 (10 μg/ml, Cat #72009, AnaSpec, San Jose) was pre-incubated with 1 mM APMA at 37° C. for 2 hours to activate this enzyme. […] Treated wells were incubated at room temperature for 30 min and the fluorescence intensity of 5-FAM was determined for each sample by measurement at excitation/emission wavelengths of 485 nm/520 nm with a fluorometer and reported in RFU (FIGS. 6A and 6B). […]

NC(=S)N/N=C/c1ncccc1N [PAN-811, 3-aminopyridine-2-carboxaldehyde thiosemicarbazone]
reduction in edema volume ([1]; 2 mg/kg i.v., compared to the high vehicle group, 22 hours): 70%
reduction in edema volume ([1]; 5 mg/kg i.v., compared with High vehicle group, 22 hours (data not shown)): 31%
premature mortality rate ([1]; all PAN-811 treated groups (9 of 57), vehicle groups 28%): 15.8%
reduction of premature mortality ([1]; all PAN-811 treated groups versus the 2 vehicle-treated groups): 44%
suppression of pro-MMP-9-catalyzed increase in fluorescence intensity [2]: 64%
